The target in assay [1] is T1, α5β1 integrin (Homo sapiens, UniProt P05556+P08648).
T1 construct: The α5β1 and αvβ3 integrins were isolated from human placenta; from tissue; host or cells: human placenta
In words: phage attachment assay: inhibition of CRGDCL-phage binding to α5β1 integrin. The settings on record: FIG. 1. The protocol: (§1) The α5β1 and αvβ3 integrins were isolated from human placenta as described in Pytela et al., PNAS USA.
CRGDCL-displaying phage were incubated for 1 hour in the presence of various concentrations of the peptides to be tested in microtiter wells coated with the α5β1 integrin. […] Specific binding was quantitated by added K9lkan bacteria directly to the wells and growing the bacteria overnight at room temperature in the presence of tetracycline as described in Smith and Scott, Meth. Enzymol. […] The data represent means from duplicate wells.

The target of assay [2] is T1, α5β1 integrin. In words: inhibition of ELRGDGW-containing phage binding to α5β1 integrin. The settings on record: 1 hour at room temperature. On the procedure:
Phage carrying the insert ELRGDGW (SEQ ID NO 24) were added together with various concentrations of the cyclic peptide […] (SEQ ID NO:03) into microliter wells coated with the α5β1 integrin and incubated for 1 hour at room temperature. The 15 phage which remained bound to the wells were quantitated by growing the K9lkan bacteria in the wells overnight at room temperature in the presence of tetracycline. The absorbance that indicates the growth of bacteria infected with phage was measured at 600 nm with an ELISA reader.

Assay [3] deals with T2, αvβ3 integrin (Homo sapiens, UniProt P05106+P06756).
T2 construct: The α5β1 and αvβ3 integrins were isolated from human placenta; from tissue; host or cells: human placenta
In words: inhibition of CRGDCL-phage binding to αvβ3. The conditions noted are these: means from duplicate wells.
Text: as §1
(§2) Selected peptides were studied for their ability to bind to the αvβ3 integrin by using integrin bound on anti-αv or anti-β3 antibody coating. Microliter wells were coated with β3 antibodies to bind specifically the αvβ3 integrin. […] The bound phage were eluted with low pH buffer and quantitated by infection of bacteria as described above. The IC50 values are means from duplicate wells. ND means not determined.

For another assay, the target named is T3, α5β1 (UniProt G3HZ55+P08648).
T3 construct: expressed in transfected cells; host or cells: CHO B2/α27 clone
In words: cell attachment assay: α5-transfected CHO cells B2/α27 to fibronectin. It is filed as cell-based. The conditions noted are these: FIG. 4A, read-out: IC50, inhibition of α5β1-mediated cell attachment to fibronectin. From the text:
(§3) CHO cell lines expressing α5β1 (the B2/α27 clone, as described in Bauer et al., J. Cell. Biol. 116:477-487 (1992)), or CHO cell lines expressing αvβ1 (B2/v7 clone, described in Zhang et al., J. Cell. Biol. 122:235-242 (1993)) were used in these assays. Cell lines expressing fibronectin-binding integrins were used to determine peptide activities against these integrins in the cell attachment assay described in Ruoslahti et al. Methods Enzymol. 144:803-831 […]. The vitronectin-binding integrins αvβ5 and αvβ3 were assayed using the cell lines HT29 and IMR90, respectively, which were described in Koivunen et al. J. Biol. Chem. 268:205-210 (1993).
(§4) Human plasma fibronectin and vitronectin were iodinated as described in Morla and Ruoslahti, J. Cell Biol. 118:421-429 (1992), which is incorporated herein by reference. […] The input ell number was approximately 2×10^4 and attachment was quantitated by staining with 0.1% amido black.
(§5) Selected peptides were tested for inhibitory activity in cell attachment assays. The assays are described in detail in the Example above. The cells used in the various experiments were: (A) α5 -transfected CHO cells B2/α27 (α5β1); αv -transfectedCHO cells 32/v7 (αvβ1); (C) HT29 cells (αvβ5); (D) IMR90 cells (αvβ3). […]

Assay [4] concerns the target T2, αvβ3 integrin. In words: inhibition of NGRAHA-phage binding to αvβ3. The conditions noted are these: means from duplicate wells.
Text: as §1, §2

Assay [5] concerns the target T1, α5β1 integrin. In words: fibronectin binding assay: inhibition of 125I-labeled fibronectin binding to immobilized α5β1. The settings on record: FIG. 2, FIG. 3. The protocol: Microtiter wells were coated with anti-α5 specific antibody by incubating overnight at an antibody concentration of 10 μg/ml, followed by BSA. α5β1 integrin then was bound to α5specific antibody-coated wells by incubating 300 μl of a placental extract per well in TBS buffer containing 0.1 M octylglucoside, 1 mM CaCl2, 1 mM MnCl2 and proteinase inhibitors overnight at 4° C. according to Pytela et al., Methods Enzymol 144: 475-489 (1987), which is herein incorporated by reference. Alternatively, the α5β1 integrin was directly coated on plastic as described above. The wells were extensively washed with TBS containing 0.1% NP-40™. ^125 I-labeled fibronectin (100,000 cpm per well) was incubated in the presence of competing peptides for 1 hour at 25° C. in 100 μl volume of TBS containing 0.1% NP-40™ detergent and 1 mM MnCl 2. After repeated washing, the radioactivity remaining bound was quantitated with a gamma counter.
Next, three of these four peptides were compared for efficiencies in inhibiting binding of ^125 I-labeled fibronectin to immobilized α5β1, according to the fibronectin binding assay described in the Example above. Anti-α5 antibodies were used to tether α5β1 onto microliter wells. ^125 I-labeled fibronectin was incubated in the coated wells in the presence of competing peptides for 1 hour. After washing, the radioactivity that remained bound was determined. The data represent means from duplicate wells.

For assay [6], the target named is T2, αvβ3 integrin. In words: binding of peptides to αvβ3 integrin bound on anti-αv or anti-β3 antibody coating. From the text:
Selected peptides were studied for their ability to bind to the αvβ3 integrin by using integrin bound on anti-αv or anti-β3 antibody coating. Microliter wells were coated with β3 antibodies to bind specifically the αvβ3 integrin. The input of CRGDCL (SEQ ID NO:01)-containing phage and NGRAHA (SEQ ID NO:04)-containing phage were 2×10^12 and 5×10^12 TU per well, respectively. The bound phage were eluted with low pH buffer and quantitated by infection of bacteria as described above. The IC50 values are means from duplicate wells. ND means not determined.

In another assay the target is T4, αvβ5 (Homo sapiens, UniProt P06756+P18084).
T4 construct: endogenous in cells; host or cells: HT29
In words: cell attachment assay: HT29 cells to vitronectin. Format: cell-based.
Text: as §3, §4, §5

The subject of a further assay is α5β1 and αvβ3 integrins. In words: competitive binding assays for relative binding affinities of peptide motifs. On the set-up: species or system human. The conditions noted are these: for relative binding affinity class (in words): competitive binding assays.

Positions of bridges follow the written chain, without caps; N, C: chain ends. Residues, ends and D or L forms follow the SMILES beside them. No end group written: not given here.

T1 sequence (P08648 42-894 limits assumed): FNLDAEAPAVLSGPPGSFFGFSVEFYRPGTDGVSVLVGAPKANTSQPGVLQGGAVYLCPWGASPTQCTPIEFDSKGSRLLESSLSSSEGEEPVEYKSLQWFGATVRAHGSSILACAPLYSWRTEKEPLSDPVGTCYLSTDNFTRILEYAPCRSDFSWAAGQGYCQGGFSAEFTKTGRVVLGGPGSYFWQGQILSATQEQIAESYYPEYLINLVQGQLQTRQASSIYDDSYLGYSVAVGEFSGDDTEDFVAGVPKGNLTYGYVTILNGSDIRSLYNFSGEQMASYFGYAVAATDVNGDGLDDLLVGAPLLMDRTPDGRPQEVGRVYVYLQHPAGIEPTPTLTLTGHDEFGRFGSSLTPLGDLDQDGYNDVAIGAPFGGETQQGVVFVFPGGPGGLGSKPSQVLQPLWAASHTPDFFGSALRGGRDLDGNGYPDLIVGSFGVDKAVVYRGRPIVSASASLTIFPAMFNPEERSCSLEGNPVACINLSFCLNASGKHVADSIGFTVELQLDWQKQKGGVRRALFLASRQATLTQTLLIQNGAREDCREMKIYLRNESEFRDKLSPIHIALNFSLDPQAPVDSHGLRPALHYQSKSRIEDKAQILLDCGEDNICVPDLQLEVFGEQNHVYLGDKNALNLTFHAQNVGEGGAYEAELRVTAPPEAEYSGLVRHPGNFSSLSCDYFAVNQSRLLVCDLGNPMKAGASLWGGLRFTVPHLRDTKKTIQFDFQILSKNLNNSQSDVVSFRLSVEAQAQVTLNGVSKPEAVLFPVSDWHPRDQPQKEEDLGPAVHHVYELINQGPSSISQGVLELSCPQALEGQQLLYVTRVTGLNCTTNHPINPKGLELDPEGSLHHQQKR
T1 sequence (P08648 895-1049 limits assumed): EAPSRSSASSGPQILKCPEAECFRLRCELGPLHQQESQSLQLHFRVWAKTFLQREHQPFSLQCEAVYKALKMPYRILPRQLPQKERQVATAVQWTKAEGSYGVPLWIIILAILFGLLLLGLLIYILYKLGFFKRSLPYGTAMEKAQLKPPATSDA
T1 sequence (P05556 21-798): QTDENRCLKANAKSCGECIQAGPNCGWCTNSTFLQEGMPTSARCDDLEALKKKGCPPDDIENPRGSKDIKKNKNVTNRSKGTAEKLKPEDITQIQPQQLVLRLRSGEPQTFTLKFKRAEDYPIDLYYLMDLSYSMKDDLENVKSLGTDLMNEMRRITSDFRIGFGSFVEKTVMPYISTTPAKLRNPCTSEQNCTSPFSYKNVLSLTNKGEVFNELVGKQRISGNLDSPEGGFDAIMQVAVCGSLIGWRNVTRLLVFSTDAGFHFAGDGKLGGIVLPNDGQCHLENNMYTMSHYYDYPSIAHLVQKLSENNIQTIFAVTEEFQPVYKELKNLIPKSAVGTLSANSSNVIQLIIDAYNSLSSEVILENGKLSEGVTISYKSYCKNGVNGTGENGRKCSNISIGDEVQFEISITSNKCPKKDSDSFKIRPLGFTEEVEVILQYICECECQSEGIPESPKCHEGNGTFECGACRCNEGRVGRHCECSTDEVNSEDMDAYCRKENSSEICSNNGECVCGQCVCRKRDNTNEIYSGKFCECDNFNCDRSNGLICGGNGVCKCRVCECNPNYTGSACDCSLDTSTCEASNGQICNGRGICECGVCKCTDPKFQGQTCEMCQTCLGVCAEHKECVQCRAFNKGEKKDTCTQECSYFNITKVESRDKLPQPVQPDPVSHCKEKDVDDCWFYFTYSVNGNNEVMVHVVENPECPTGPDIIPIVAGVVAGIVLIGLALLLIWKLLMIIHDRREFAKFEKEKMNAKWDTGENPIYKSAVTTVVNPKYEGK
T2 sequence (P06756 31-889 limits assumed): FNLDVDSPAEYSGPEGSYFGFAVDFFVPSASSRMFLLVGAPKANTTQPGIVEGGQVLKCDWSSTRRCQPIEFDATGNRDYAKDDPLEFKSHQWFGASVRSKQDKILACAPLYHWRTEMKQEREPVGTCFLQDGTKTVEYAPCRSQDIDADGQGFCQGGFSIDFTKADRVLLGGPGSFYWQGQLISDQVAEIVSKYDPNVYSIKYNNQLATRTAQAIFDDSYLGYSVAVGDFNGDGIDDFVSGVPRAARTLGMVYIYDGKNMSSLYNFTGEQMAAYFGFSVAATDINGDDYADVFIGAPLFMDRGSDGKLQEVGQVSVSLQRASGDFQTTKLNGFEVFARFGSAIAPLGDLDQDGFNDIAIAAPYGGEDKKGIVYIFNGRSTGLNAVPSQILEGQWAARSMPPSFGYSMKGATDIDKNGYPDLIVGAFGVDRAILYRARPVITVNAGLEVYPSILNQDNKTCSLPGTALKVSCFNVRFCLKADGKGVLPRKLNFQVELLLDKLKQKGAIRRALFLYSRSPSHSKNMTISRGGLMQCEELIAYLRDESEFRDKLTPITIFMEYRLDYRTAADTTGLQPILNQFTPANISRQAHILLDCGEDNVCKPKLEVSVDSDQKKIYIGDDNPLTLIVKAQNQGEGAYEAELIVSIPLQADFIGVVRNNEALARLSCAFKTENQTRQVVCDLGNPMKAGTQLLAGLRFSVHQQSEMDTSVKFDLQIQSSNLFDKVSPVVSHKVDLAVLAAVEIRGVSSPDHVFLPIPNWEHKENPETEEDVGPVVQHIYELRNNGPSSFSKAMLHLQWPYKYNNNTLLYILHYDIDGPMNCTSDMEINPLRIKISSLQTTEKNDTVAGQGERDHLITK
T2 sequence (P06756 891-1048 limits assumed): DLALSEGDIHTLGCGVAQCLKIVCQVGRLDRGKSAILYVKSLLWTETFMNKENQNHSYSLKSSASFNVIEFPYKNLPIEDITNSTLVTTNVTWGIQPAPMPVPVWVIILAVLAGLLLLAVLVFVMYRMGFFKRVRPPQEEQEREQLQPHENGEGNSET
T2 sequence (P05106 27-788): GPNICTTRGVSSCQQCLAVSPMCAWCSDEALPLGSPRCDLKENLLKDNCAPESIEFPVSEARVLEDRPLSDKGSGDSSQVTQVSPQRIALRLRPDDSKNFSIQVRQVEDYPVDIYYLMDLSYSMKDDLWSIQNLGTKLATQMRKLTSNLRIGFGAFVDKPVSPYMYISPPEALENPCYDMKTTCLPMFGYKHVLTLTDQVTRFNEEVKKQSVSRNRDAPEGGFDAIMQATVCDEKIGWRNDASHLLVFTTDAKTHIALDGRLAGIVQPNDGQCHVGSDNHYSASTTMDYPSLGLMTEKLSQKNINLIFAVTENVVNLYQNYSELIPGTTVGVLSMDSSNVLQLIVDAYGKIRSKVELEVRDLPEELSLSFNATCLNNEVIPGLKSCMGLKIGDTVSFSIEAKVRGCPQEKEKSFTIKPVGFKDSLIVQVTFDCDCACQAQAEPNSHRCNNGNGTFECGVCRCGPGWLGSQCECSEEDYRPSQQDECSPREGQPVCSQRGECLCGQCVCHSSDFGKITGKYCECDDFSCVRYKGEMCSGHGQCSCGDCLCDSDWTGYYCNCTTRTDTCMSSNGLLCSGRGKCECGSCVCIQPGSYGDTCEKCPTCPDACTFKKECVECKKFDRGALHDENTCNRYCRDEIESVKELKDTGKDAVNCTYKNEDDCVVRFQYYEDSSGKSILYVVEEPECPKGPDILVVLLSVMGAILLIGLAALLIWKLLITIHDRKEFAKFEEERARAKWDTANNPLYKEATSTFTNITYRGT
T3 sequence (P08648 42-894 limits assumed): as the sequence (P08648 42-894 limits assumed) above
T3 sequence (P08648 895-1049 limits assumed): as the sequence (P08648 895-1049 limits assumed) above
T3 sequence (G3HZ55 21-798): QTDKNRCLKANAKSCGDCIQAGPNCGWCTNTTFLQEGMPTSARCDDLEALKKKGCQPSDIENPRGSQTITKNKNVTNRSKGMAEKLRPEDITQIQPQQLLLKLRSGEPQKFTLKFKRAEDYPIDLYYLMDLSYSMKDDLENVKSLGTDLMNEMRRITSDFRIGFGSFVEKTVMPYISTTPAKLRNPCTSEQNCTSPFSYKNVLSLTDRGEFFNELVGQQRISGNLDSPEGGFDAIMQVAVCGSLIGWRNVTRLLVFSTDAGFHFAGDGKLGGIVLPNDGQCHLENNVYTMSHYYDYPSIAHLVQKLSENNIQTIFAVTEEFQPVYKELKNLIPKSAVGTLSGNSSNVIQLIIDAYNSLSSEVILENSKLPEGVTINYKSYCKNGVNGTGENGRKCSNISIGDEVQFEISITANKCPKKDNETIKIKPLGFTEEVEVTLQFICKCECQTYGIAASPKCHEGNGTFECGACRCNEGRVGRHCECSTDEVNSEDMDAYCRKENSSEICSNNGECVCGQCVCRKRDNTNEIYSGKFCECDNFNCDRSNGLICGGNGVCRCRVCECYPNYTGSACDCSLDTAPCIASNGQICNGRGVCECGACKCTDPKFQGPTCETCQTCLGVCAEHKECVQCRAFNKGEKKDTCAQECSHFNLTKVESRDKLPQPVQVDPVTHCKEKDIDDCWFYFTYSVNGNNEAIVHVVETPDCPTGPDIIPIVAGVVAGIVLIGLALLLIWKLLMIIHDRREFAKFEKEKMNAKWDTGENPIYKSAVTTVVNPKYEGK

`CC(C)C[C@H](NC(=O)[C@@H]1CSSC[C@H](NC(=O)[C@H](C)NC(=O)CN)C(=O)N[C@@H](CCCNC(=N)N)C(=O)NCC(=O)N[C@@H](CC(=O)O)C(=O)N1)C(=O)NCC(=O)N[C@@H](C)C(=O)O` [GAC*RGDC*LGA] (H-GACRGDCLGA-OH; disulfide 3-7): the IC50 on α5β1 integrin [1] (1 hour, means from duplicate wells, read-out: IC50 (half-maximal inhibitory concentration), inhibition of CRGDCL-phage binding to α5β1) was 0.02 µM; at α5β1 integrin [2] it was approximately 0.5 µM; at αvβ3 integrin [3], 0.1 µM; at α5β1 it was 100 µM.

For the compound `N=C(N)NCCC[C@H](NC(=O)CNC(=O)[C@H](CC(=O)O)NC(=O)[C@@H](N)CO)C(=O)O` [SDGR, reference compound] (H-SDGR-OH), the IC50 at αvβ3 integrin [4] is more than 100 µM.

Take “SDGRAHS (SDGRAHA) [DGRAHA with a serine residue included at the amino terminus]”: the “activity in inhibiting 125I-fibronectin binding to α5β1 (in words)” value in the assay with α5β1 integrin [5] is listed as “essentially devoid of activity”.

As for SRRGDL [RGD peptide], the “binding to αvβ3 (in words)” value with αvβ3 integrin [6] is given as “bound”.

Take DGRAHA [DGRAHA]: at αvβ3 integrin [4], the IC50 is 100 µM. The “IC50 against αvβ5 compared with the standard GRGDSP” value against αvβ5 was “equal to the standard GRGDSP”.

Regarding CVLNGRME, the “relative binding affinity class (in words)” value with α5β1 and αvβ3 integrins is reported as “moderate affinities”.

With CRGDCL (disulfide 1-5 (inferred)), the “activity in inhibiting 125I-fibronectin binding to α5β1 (in words)” value in the assay with α5β1 integrin [5] is reported as “very effective”. Further, the “binding to αvβ3 (in words)” value in the assay with αvβ3 integrin [6] is recorded as “bound”. Also, the “binding affinity compared with similar linear peptides, as judged by the IC50 value” at α5β1 and αvβ3 integrins (both α5β1 and αvβ3 integrins) is reported as “about 10 times”. Moreover, the “relative binding affinity class (in words)” value in the assay with α5β1 and αvβ3 integrins is recorded as “High affinity”.

Compound GATIRSVDGA came in with an IC50 on αvβ3 integrin [3] of approximately 100 µM.

For “CRGDC (disulfide 1-5 (inferred)) [cyclic peptide motif]”, the “relative binding affinity class (in words)” value with α5β1 and αvβ3 integrins is “High affinity”.

For the compound NGRAHA [NGRAHA], the IC50 is 30 µM on α5β1 integrin [1] (CRGDCL-phage, α5β1, read-out: IC50 in the phage assay (unit inferred)); 200 µM on αvβ3 integrin [3]; 30 µM at αvβ3 integrin [4]. Also, the “activity in inhibiting 125I-fibronectin binding to α5β1 (in words)” value at α5β1 integrin [5] is recorded as “active”.

Values taken from US6177542A, “Integrin-binding peptides” (The Burnham Institute, priority 1997, dated 2001).
